Results: patent publication US12447170B2, “Use of maribavir in treatment regimens” (priority 2021, dated 2025)

Columns and labels:
[1] = Drug interaction summary: effect of maribavir 400 mg twice daily on co-administered drug pharmacokinetics (Tables 1-A, 1-C); format: in vivo, human; details: for Effect on Concentration (of concomitant drug): concomitant drug with maribavir, observed and predicted; for Geometric Mean Ratio of co-administered drug PK with/without maribavir (No Effect = 1.00), AUC / Geometric Mean Ratio of co-administered drug PK with/without maribavir (No Effect = 1.00), Cmax: digoxin 0.5 mg single dose
[2] = Drug interaction summary: effect of co-administered drugs on maribavir pharmacokinetics (Tables 1-A, 1-B); details: concomitant drug with maribavir; observed and predicted
Excerpt: Drug interaction studies were summarized based on Example 2 and other available data (e.g., in vitro and clinical data).

[3] = design: species or system human; details: in vivo
Excerpt: Accumulated data have shown that maribavir is metabolized primarily in the liver, and renal clearance is a minor route (representing less than 5 percent). VP 44469 (N-dealkylated Maribavir) was the principal metabolite of maribavir in both urine and feces. In plasma, unchanged maribavir and VP 44469 represented approximately 69% and 9.8% of total radioactivity, respectively. The hepatic metabolism of maribavir was primarily driven by cytochrome P450s. CYP3A4 and CYP1A2 were responsible for 70 to 85% and 15 to 30% of the CYP-driven pathways, respectively. Glucuronidation accounted for less than 20% of metabolism.
Distribution models evaluated included a full PBPK model and a minimal PBPK model, both of which consider liver and intestinal metabolism. Mass balance data from the [^14C] ADME study indicated a fraction absorbed of 0.83 or greater following oral administration of 400 mg dose of maribavir. Absorption models evaluated included a simple first-order absorption model and a more mechanistic “Advanced Dissolution Absorption and Metabolism” (ADAM) model.

[4] = in the presence of 400 mg twice daily maribavir, tacrolimus stable dose twice daily

SMILES | Effect on Concentration (of concomitant drug) [1] | Effect on Concentration (of maribavir) [2] | further results
C[C@H]1O[C@@H](O[C@H]2[C@@H](O)C[C@H](O[C@H]3[C@@H](O)C[C@H](O[C@H]4CC[C@@]5(C)[C@H](CC[C@@H]6[C@@H]5C[C@@H](O)[C@]5(C)[C@@H](C7=CC(=O)OC7)CC[C@]65O)C4)O[C@@H]3C)O[C@@H]2C)C[C@H](O)[C@@H]1O [digoxin] | ↑digoxin |  | Geometric Mean Ratio of co-administered drug PK with/without maribavir (No Effect = 1.00), AUC [1, 4]: 1.21; Geometric Mean Ratio of co-administered drug PK with/without maribavir (No Effect = 1.00), Cmax [1, 4]: 1.25
O=C1NC(=O)C(c2ccccc2)(c2ccccc2)N1 [Phenytoin, reference compound] |  | ↓Maribavir | 
CO[C@H]1/C=C/O[C@@]2(C)Oc3c(C)c(O)c4c(c3C2=O)C2=NC3(CCN(CC(C)C)CC3)NC2=C(NC(=O)/C(C)=C\C=C\[C@H](C)[C@H](O)[C@@H](C)[C@@H](O)[C@@H](C)[C@H](OC(C)=O)[C@@H]1C)C4=O [Rifabutin, reference compound] |  | ↓Maribavir | 
NC(=O)N1c2ccccc2C=Cc2ccccc21 [Carbamazepine, reference compound] |  | ↓Maribavir | 
Nc1nc2cc(Cl)c(Cl)cc2n1[C@H]1O[C@@H](CO)[C@H](O)[C@@H]1O [VP 44469, N-dealkylated Maribavir] |  |  | share of total radioactivity in plasma [3]: ~9.8%
CO[C@H]1/C=C/O[C@@]2(C)Oc3c(C)c(O)c4c(O)c(c(/C=N/N5CCN(C)CC5)c(O)c4c3C2=O)NC(=O)/C(C)=C\C=C\[C@H](C)[C@H](O)[C@@H](C)[C@@H](O)[C@@H](C)[C@H](OC(C)=O)[C@@H]1C [Rifampin, reference compound] |  | ↓Maribavir | 
CO[C@H]1C[C@@H]2CC[C@@H](C)[C@@](O)(O2)C(=O)C(=O)N2CCCC[C@H]2C(=O)O[C@H]([C@H](C)C[C@@H]2CC[C@@H](O)[C@H](OC)C2)CC(=O)[C@H](C)/C=C(\C)[C@@H](O)[C@@H](OC)C(=O)[C@H](C)C[C@H](C)/C=C/C=C/C=C/1C [Sirolimus] | ↑Sirolimus |  | 
C=CC[C@@H]1/C=C(\C)C[C@H](C)C[C@H](OC)[C@H]2O[C@@](O)(C(=O)C(=O)N3CCCC[C@H]3C(=O)O[C@H](/C(C)=C/[C@@H]3CC[C@@H](O)[C@H](OC)C3)[C@H](C)[C@@H](O)CC1=O)[C@H](C)C[C@@H]2OC [Tacrolimus] | ↑Tacrolimus |  | increase of tacrolimus exposure by maribavir ([1]; co-administration with maribavir): 51%; Geometric Mean Ratio of co-administered drug PK with/without maribavir (No Effect = 1.00), Ctrough [1, 4]: 1.57; Geometric Mean Ratio of co-administered drug PK with/without maribavir (No Effect = 1.00), AUC [1, 4]: 1.51; Geometric Mean Ratio of co-administered drug PK with/without maribavir (No Effect = 1.00), Cmax [1, 4]: 1.38
CO[C@H]1C[C@@H]2CC[C@@H](C)[C@@](O)(O2)C(=O)C(=O)N2CCCC[C@H]2C(=O)O[C@H]([C@H](C)C[C@@H]2CC[C@@H](OCCO)[C@H](OC)C2)CC(=O)[C@H](C)/C=C(\C)[C@@H](O)[C@@H](OC)C(=O)[C@H](C)C[C@H](C)/C=C/C=C/C=C/1C [Everolimus] | ↑Everolimus |  | 
CCC1(c2ccccc2)C(=O)NC(=O)NC1=O [Phenobarbital, reference compound] |  | ↓Maribavir | 
